This is an account of results in ChEMBL document CHEMBL1157238, “An unusual oxalylated tetramic acid from the New Zealand basidiomycete Chamonixia pachydermis” (2006).

The test system of this experiment is Bacillus subtilis. Briefly: Antibacterial activity against Bacillus subtilis at 40 ug by agar diffusion assay. The conditions noted are these: read-out: IZ. It is filed as functional. For orientation: A growth-free zone around the sample is the usual read-out of agar diffusion tests.

SMILES strings stand for the structures.

Consider `O=C(O)C(=O)C1=C(O)/C(=C/c2ccc(O)c(Cl)c2)NC1=O` [PACHYDERMIN], for which the zone of inhibition at 40 µg/disc came out at 1 mm.
